Source: ChEMBL document CHEMBL6096719, “Kidney Targeting Smart Antibiotic Discovery: Multimechanism Pleuromutilins for Pyelonephritis Therapy” (J Med Chem, 2025)

Key:
Staphylococcus aureus [1] = assay: Antibacterial activity against methicillin-resistant Staphylococcus aureus ATCC33591 infected in systemic intraperitoneal infection Kunming mouse model assessed as decrease in inflammation and neutrophil infiltration in liver at 5 mg/kg, ip treated at 1 hr post-infection and measured after 7 days by Hematoxylin-Eosin staining based analysis; assay type: functional, organism-based; conditions: time 7.0 day
[2] = Oral bioavailability in Sprague-Dawley rat at 10 mg/kg; assay type: ADME, organism-based; conditions: in vivo
[3] = Observed apparent volume of distribution during terminal phase in Sprague-Dawley rat at 10 mg/kg, po; assay type: ADME, organism-based; conditions: in vivo, read-out: Vz/F_obs
Staphylococcus aureus [4] = assay: Antibacterial activity against methicillin-resistant Staphylococcus aureus ATCC33591 infected in systemic intraperitoneal infection Kunming mouse model assessed as increase in animal's survival rate at 20 mg/kg, ip treated at 1 hr post-infection and measured for 7 days; assay type: functional, organism-based; conditions: time 7.0 day
[5] = Cmax in Sprague-Dawley rat at 10 mg/kg, po; assay type: ADME, organism-based; conditions: in vivo
Staphylococcus aureus [6] = assay: Antibacterial activity against Staphylococcus aureus ATCC 29213 assessed as inhibition of bacterial growth incubated for 24 hrs by broth microdilution method; assay type: functional
[7] = Observed clearance in Sprague-Dawley rat at 5 mg/kg, iv; assay type: ADME, organism-based; conditions: in vivo

## C=C[C@]1(C)C[C@@H](OC(=O)CSc2nc3cc[n+](Cc4ccc(C)cc4)cc3[nH]2)[C@]2(C)[C@H](C)CC[C@]3(CCC(=O)[C@H]32)[C@@H](C)[C@@H]1O.[Br-]
Staphylococcus aureus [1]
  Activity: Active; Nearly Restoration Of Normal Histology Observed
[2]
  bioavailability: 47.9%
[3]
  Vd/F: 1.43 L/kg
Staphylococcus aureus [4]
  Activity: Active; Slight Decrease In Activity Compared To Lower Dose Of Drug Concentration Observed; Diminished Therapeutic Effects To Drug At Higher Concentrations Observed
[5]
  Cmax: 6210 ng/mL
Staphylococcus aureus [6]
  MIC: < 1 µg/mL
[7]
  clearance: 5.04 mL/min/kg
